Experimental findings from ChEMBL document CHEMBL5584264 (Bioorg Med Chem Lett, 2024) are described below.

Test [1] relates to RAW264.7. As to the kind of experiment: Antiinflammatory activity against LPS-induced mouse RAW264.7 cells assessed as reduction in TNF-alpha level at 10 uM preincubated with compound for 1 hr followed by LPS-induction and measured after 24 hrs by ELISA analysis relative to control. More on the design: scale not given: the % may be the effect or the level left. As to conditions: time 25 hrs. It is filed as functional.

The test system of test [2] is RAW264.7. As to the kind of experiment: Antiinflammatory activity against LPS-induced mouse RAW264.7 cells assessed as reduction in TNF-alpha level at 1 uM preincubated with compound for 1 hr followed by LPS-induction and measured after 24 hrs by ELISA analysis relative to control. The arrangement: scale not given: the % may be the effect or the level left. As to conditions: time 25 hrs. It is filed as functional.

Test [3] deals with RAW264.7. The test is described as follows: Antiinflammatory activity against LPS-induced mouse RAW264.7 cells assessed as cell viability at 1 uM by celltiter-blue cell viability assay. It is filed as functional. The following applies: read-out: Activity.
Test [4] relates to RAW264.7. The test is described as follows: Antiinflammatory activity against LPS-induced mouse RAW264.7 cells assessed as cell viability at 10 uM by celltiter-blue cell viability assay. It is filed as functional. As to conditions: read-out: Activity.
Test [5] has as its system RAW264.7. The test is described as follows: Antiinflammatory activity against LPS-induced mouse RAW264.7 cells assessed as cell viability at 30 uM by celltiter-blue cell viability assay. It is filed as functional. As to conditions: read-out: Activity.
Test [6] deals with RAW264.7. As to the kind of experiment: Antiinflammatory activity against LPS-induced mouse RAW264.7 cells assessed as reduction in nitrite level at 1 uM preincubated with compound for 1 hr followed by LPS-induction and measured after 24 hrs by Fluorometric Assay relative to control. It is filed as functional. More on the design: scale not given: the % may be the effect or the level left. As to conditions: time 25 hrs.

Test [7] has as its system RAW264.7. As to the kind of experiment: Antiinflammatory activity against LPS-induced mouse RAW264.7 cells assessed as reduction in nitrite level at 10 uM preincubated with compound for 1 hr followed by LPS-induction and measured after 24 hrs by Fluorometric Assay relative to control. It counts as functional. The arrangement: scale not given: the % may be the effect or the level left. The following applies: time 25 hrs.

Test [8] relates to RAW264.7. As to the kind of experiment: Antiinflammatory activity against LPS-induced mouse RAW264.7 cells assessed as reduction in nitrite level at 30 uM preincubated with compound for 1 hr followed by LPS-induction and measured after 24 hrs by Fluorometric Assay relative to control. It is filed as functional. The following applies: time 25 hrs. More on the design: scale not given: the % may be the effect or the level left.

Test [9] deals with RAW264.7. As to the kind of experiment: Antiinflammatory activity against LPS-induced mouse RAW264.7 cells assessed as reduction in TNF-alpha level at 30 uM preincubated with compound for 1 hr followed by LPS-induction and measured after 24 hrs by ELISA analysis relative to control. It is filed as functional. The arrangement: scale not given: the % may be the effect or the level left. The following applies: time 25 hrs.

The test system of test [10] is RAW264.7. The test is described as follows: Antiinflammatory activity against LPS-induced mouse RAW264.7 cells assessed as reduction in IL-6 level at 1 uM preincubated with compound for 1 hr followed by LPS-induction and measured after 24 hrs by ELISA analysis relative to control. It counts as functional. The arrangement: scale not given: the % may be the effect or the level left. The following applies: time 25 hrs.

Test [11] relates to RAW264.7. The test is described as follows: Antiinflammatory activity against LPS-induced mouse RAW264.7 cells assessed as reduction in IL-6 level at 10 uM preincubated with compound for 1 hr followed by LPS-induction and measured after 24 hrs by ELISA analysis relative to control. It is filed as functional. The arrangement: scale not given: the % may be the effect or the level left. As to conditions: time 25 hrs.

In test [12] the test system is RAW264.7. The test is described as follows: Antiinflammatory activity against LPS-induced mouse RAW264.7 cells assessed as reduction in IL-6 level at 30 uM preincubated with compound for 1 hr followed by LPS-induction and measured after 24 hrs by ELISA analysis relative to control. It counts as functional. The arrangement: scale not given: the % may be the effect or the level left. As to conditions: time 25 hrs.

The target of test [13] is 5-hydroxytryptamine receptor 2B (Homo sapiens, UniProt P41595). The test is described as follows: Displacement of [3H]DTG from 5HT2B receptor (unknown origin) assessed as inhibition constant.
Test [14] deals with Serotonin 3 (5-HT3) receptor. The test is described as follows: Displacement of [3H]DTG from 5HT3 receptor (unknown origin) assessed as inhibition constant. It counts as protein-complex assay, Homo sapiens.
The target in test [15] is 5-hydroxytryptamine receptor 2A (Homo sapiens, UniProt P28223). The test is described as follows: Displacement of [3H]DTG from 5HT2A receptor (unknown origin) assessed as inhibition constant.
Test [16] deals with Protein cereblon/DNA damage-binding protein 1 (Homo sapiens) (UniProt Q96SW2+Q16531). The test is described as follows: Displacement of Cy5-tagged thalidomide-like probe from human CRBN/DDB1 complex by fluorescence polarization based CRBN binding assay. It is filed as protein assay.
Sequence of Protein cereblon/DNA damage-binding protein 1 (Homo sapiens) (Q16531 2-1140 partner limits assumed): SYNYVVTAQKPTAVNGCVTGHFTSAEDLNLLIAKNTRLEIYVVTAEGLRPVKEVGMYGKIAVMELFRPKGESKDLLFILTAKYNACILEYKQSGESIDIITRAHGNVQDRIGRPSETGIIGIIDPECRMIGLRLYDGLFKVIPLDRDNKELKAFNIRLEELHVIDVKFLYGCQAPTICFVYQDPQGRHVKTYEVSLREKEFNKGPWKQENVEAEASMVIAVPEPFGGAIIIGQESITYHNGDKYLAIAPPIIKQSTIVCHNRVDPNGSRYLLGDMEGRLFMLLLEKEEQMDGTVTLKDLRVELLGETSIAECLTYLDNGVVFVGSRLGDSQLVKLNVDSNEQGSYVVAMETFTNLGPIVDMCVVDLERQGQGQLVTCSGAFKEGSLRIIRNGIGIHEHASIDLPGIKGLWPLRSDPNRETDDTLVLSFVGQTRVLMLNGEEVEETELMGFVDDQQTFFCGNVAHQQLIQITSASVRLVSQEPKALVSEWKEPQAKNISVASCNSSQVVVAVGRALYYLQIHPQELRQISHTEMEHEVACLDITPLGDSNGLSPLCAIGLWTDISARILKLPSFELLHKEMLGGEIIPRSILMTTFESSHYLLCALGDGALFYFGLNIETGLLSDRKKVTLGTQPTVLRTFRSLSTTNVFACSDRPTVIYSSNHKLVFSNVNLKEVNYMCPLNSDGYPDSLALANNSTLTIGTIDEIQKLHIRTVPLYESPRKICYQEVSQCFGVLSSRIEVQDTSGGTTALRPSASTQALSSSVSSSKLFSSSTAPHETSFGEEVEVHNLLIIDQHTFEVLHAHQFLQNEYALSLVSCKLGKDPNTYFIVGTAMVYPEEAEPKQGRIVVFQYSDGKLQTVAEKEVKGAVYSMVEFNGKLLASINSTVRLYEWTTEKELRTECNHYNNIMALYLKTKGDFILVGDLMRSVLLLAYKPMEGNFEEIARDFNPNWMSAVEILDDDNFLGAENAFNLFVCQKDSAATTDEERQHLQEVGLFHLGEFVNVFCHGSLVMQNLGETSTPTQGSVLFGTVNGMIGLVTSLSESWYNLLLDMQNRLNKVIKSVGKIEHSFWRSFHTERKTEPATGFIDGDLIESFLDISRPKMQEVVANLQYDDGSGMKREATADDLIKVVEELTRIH
Sequence of Protein cereblon/DNA damage-binding protein 1 (Homo sapiens) (Q96SW2 whole entry): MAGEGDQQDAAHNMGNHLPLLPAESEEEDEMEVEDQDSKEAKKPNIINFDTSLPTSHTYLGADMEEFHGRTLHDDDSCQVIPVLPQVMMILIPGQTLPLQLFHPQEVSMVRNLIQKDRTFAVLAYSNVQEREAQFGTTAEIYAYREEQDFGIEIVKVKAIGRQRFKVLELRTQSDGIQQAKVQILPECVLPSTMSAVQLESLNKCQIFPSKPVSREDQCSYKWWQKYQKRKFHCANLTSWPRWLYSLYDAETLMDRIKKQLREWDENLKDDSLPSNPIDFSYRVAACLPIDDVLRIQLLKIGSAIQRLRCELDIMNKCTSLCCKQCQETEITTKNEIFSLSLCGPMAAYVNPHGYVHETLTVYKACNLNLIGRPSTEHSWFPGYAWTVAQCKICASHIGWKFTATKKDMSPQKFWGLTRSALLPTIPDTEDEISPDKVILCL

Sequence of 5-hydroxytryptamine receptor 2A (P28223 whole entry): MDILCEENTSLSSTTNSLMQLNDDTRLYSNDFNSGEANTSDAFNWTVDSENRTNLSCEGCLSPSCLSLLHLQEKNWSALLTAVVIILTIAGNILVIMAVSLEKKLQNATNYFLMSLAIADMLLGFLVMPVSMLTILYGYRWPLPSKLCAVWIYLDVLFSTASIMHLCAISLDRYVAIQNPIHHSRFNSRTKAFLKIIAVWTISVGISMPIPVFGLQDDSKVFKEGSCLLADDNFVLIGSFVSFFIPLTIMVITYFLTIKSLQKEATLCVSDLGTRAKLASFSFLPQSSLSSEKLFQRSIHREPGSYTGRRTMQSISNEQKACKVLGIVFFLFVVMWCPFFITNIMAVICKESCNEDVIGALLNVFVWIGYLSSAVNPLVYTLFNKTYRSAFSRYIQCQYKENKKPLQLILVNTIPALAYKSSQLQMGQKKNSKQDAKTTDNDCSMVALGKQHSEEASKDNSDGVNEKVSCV
Sequence of 5-hydroxytryptamine receptor 2B (P41595 whole entry): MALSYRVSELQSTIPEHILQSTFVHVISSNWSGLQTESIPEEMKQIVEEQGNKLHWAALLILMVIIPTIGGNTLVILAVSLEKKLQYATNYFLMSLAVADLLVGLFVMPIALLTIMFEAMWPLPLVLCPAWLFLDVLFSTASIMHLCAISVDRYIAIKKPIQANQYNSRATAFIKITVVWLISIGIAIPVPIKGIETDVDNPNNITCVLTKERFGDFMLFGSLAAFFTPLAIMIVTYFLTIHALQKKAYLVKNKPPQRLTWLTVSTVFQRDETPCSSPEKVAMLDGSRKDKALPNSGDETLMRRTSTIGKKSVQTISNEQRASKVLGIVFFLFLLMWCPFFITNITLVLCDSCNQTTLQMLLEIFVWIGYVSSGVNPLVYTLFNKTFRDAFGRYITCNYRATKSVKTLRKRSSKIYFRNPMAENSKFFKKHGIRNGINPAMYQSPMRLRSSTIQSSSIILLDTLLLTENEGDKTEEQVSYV

As for `CS(=O)(=O)N1CCCC(N2C(=O)c3cccc(N)c3C2=O)C1` (stereo unspecified), the Activity in the test on RAW264.7 [1] is recorded as 99%; in the test with RAW264.7 [2], 98%; in the test on RAW264.7 [6] it was 92%; in the test with RAW264.7 [7], 103%; in the test on RAW264.7 [8] it was 95%; with RAW264.7 [9] it was 96%. In addition, the Activity with RAW264.7 [10] was 111%; in the test on RAW264.7 [11], 112%; in the test with RAW264.7 [12] it was 116%; in test [16], “Dose-Dependent Effect”. Further, the viability at 1 µM in the test on RAW264.7 [3] is 103%. Moreover, the viability at 10 µM with RAW264.7 [4] came to 103%. In the test on RAW264.7 [5], the viability at 30 µM came out at 103%. Also, the Ki in test [13], in test [14] and in [15] was greater than 10 µM each time.
